Results reported in US20220323389A1, “TREATING NON-ALCOHOLIC FATTY LIVER DISEASE AND INFLAMMATORY STEATOHEPATITIS WITH SLC25A1 INHIBITORS” (GEORGETOWN UNIVERSITY, priority 2019, published 2022).

Tests used:
[1] = system: liver of HFD-fed mice; experiment: Liver metabolites and lipid profile (LC-MS, Lipidyzer) in HFD-fed mice; type: in vivo, mouse
Excerpt: (§1) Cells, reagents, antibodies, primers. CTPI-2 was purchased from Enamine Ltd. (Monmouth Jct, N.J.). The anti-SLC25A1 antibody used in immunoblots was either from Santa Cruz Biotech (Dallas, Tex.), (#sc-86392), employed at 1:1000 dilution, or from Proteintech (15235-1-AP, Rosemont, Ill.), employed at 1:1000 dilution. Mice and diets. For the majority of the experiments (except for experiments harboring genetic alterations of the Slc25a1 gene), DIO C57BL/6J mice were purchased from Jackson Laboratory (Bar Harbor, Me.) between 4-6 weeks of age. Mice were acclimated in the Georgetown University animal facility for at least one week. At the indicated times, mice were randomized to a standard laboratory chow diet (Labdiet #5053, St. Louis, Mo.) or the high fat diet (Researchdiets D12492, New Brunswick, N.J.), with 60% calories derived from fat (lard), and 20% from sucrose. During the course of the experiments, mice were housed at one mouse per cage and food consumption was measured regularly. Animals were maintained in a normal light-cycle and provided with water ad libitum. CTPI-2 treatment. CTPI-2 was administered at 50 mg/kg via intra-peritoneal injection on alternate days. CTPI-2 was diluted either in DMSO (at 0.2% final concentration) using DMSO as vehicle control, or in 0.47% Sodium Bicarbonate (NaCO3) at a final concentration of 14 mM. NaCO3 (0.47%) served as vehicle control. Immunoblot of murine tissues. Frozen tissue samples were homogenized in radioimmunoprecipitation (RIPA) buffer with protease inhibitor cocktails. Protein quantification was done by using a Coomassie (Bradford) Protein Assay Kit (Pierce, Waltham Mass.). Equal amount of protein lysate was loaded and separated by Novex™ 4-20% Tris-Glycine Mini Gel (Invitrogen, Carlsbad, Calif.), then transferred to a PVDF membrane. Appropriate horseradish peroxidase-conjugated secondary antibody (Invitrogen) was applied after incubation with primary antibody. SuperSignal™ West Pico PLUS Chemiluminescent Substrate (Thermo Fisher Scientific, Waltham, Mass.) was used for protein detection. SLC25a1 strains. The original Slc25a1 tm1a strain was purchased from the Mutant Mouse Resource and Research Center (MMRRC, Chapel Hill, N.C.) (C57BL/6N-Slc25a1^tm1a(EUCOMM)Wtsi, RRID: MMRRC_042258-UCD). The Tg(Alb-cre)21M (Alb-Cre) mice were purchased from Jackson Laboratory (#003574). Slc25a1^+/−, Slc25a1^fl/fl and Alb/Cre mice were genotyped by conventional PCR with genomic DNA extracted from the mouse tail biopsies. Agarose gel electrophoresis was used for analysis of PCR product analysis. The PCR conditions used were as follows: 95° C. for 4 minutes, followed by 40 cycles (95° C. for 30 seconds, 65° C. for 30 seconds, and 72° C. for 50 seconds), 72° C. for 2 min then kept in 4° C. before used. Histological Analysis. Assessment of steatosis was performed on paraffin embedded H&E stained sections derived from 3-6 animals and on multiple images for each animal. The steatosis grade was scored according to the degree of liver involvement with 0, <5%; 1, 5% to 33%; 2, 33% to 50%; and 3, >50%. Alternatively, the percentage of steatosis per area was calculated with ImageJ program. Lypidomic analysis. Targeted quantitation of triglycerides was performed using multiple reaction monitoring mass spectrometry. The samples were resolved on an CORTECS T3 2.7 μm, 2.1×30 mm column online with a triple quadrupole mass spectrometer (Xevo-TQ-S, Waters Corporation, Milford, Mass.) operating in the multiple reaction monitoring (MRM) mode. Signal intensities from all MRM Q1/Q3 ion pairs for triglycerides were ranked to ensure selection of the most intense precursor and fragment ion pair for MRM-based quantitation. […] The LC and MRM method used here for the study was developed by Waters Corporation. The metabolite ratios were calculated by normalizing the peak area of endogenous metabolites within tissue samples normalized to the internal standard. Processed data was normalized with respect to tissue weight taken for analysis. […]

[2] = system: HepG2 cells; experiment: mRNA levels (RT-qPCR) in tissue culture cells treated with CTPI-2 with or without citrate; type: cell-based
Method: FIGS. 6 A-B show citrate and Ac-CoA levels derived from liver extracts of HFD-vehicle (light) or HFD+CTPI-2 (dark). FIGS. 6C-D show levels of the indicated triacylglycerides (TAG, (FIG. 6C)) and total fatty acids (FA, panel D) detected with the Lipidyzer platform. N=2-3 mice per group. FIG. 6E-F show levels of the indicated metabolites detected with targeted LC-MS analysis. […] The indicated mRNA levels were analyzed with RT-qPCR. H. Model summarizing findings as explained in the Examples. Bars indicate Standard Deviations. *p≤0.05, **p≤0.01, ***p≤0.001.
To corroborate the direct effect of CTPI-2 and of citrate in the regulation of the genes identified by our analysis, the effects of the drug and of citrate supplementation in tissue culture cells were explored.

[3] = system: liver of HFD-fed mice; experiment: Liver steatosis / steatohepatitis histology and serum chemistry in HFD-fed mice (time course); type: in vivo, mouse
Excerpt: as §1

[4] = system: HFD-fed mice; experiment: Glucose homeostasis in HFD-fed mice (fasting glucose, GTT, ITT); type: in vivo, mouse
Excerpt: (§2) Cells, reagents, antibodies, primers. CTPI-2 was purchased from Enamine Ltd. (Monmouth Jct, N.J.). The anti-SLC25A1 antibody used in immunoblots was either from Santa Cruz Biotech (Dallas, Tex.), (#sc-86392), employed at 1:1000 dilution, or from Proteintech (15235-1-AP, Rosemont, Ill.), employed at 1:1000 dilution. Mice and diets. For the majority of the experiments (except for experiments harboring genetic alterations of the Slc25a1 gene), DIO C57BL/6J mice were purchased from Jackson Laboratory (Bar Harbor, Me.) between 4-6 weeks of age. Mice were acclimated in the Georgetown University animal facility for at least one week. At the indicated times, mice were randomized to a standard laboratory chow diet (Labdiet #5053, St. Louis, Mo.) or the high fat diet (Researchdiets D12492, New Brunswick, N.J.), with 60% calories derived from fat (lard), and 20% from sucrose. During the course of the experiments, mice were housed at one mouse per cage and food consumption was measured regularly. Animals were maintained in a normal light-cycle and provided with water ad libitum. CTPI-2 treatment. CTPI-2 was administered at 50 mg/kg via intra-peritoneal injection on alternate days. […] Protein quantification was done by using a Coomassie (Bradford) Protein Assay Kit (Pierce, Waltham Mass.). […] The steatosis grade was scored according to the degree of liver involvement with 0, <5%; 1, 5% to 33%; 2, 33% to 50%; and 3, >50%. Alternatively, the percentage of steatosis per area was calculated with ImageJ program. […] Targeted quantitation of triglycerides was performed using multiple reaction monitoring mass spectrometry. […] Signal intensities from all MRM Q1/Q3 ion pairs for triglycerides were ranked to ensure selection of the most intense precursor and fragment ion pair for MRM-based quantitation. […] The metabolite ratios were calculated by normalizing the peak area of endogenous metabolites within tissue samples normalized to the internal standard. […]

[5] = system: SLC25A1; experiment: Immunoblot of SLC25A1 protein in tissues of HFD-fed mice; type: in vivo, mouse
Excerpt: as §2

[6] = HFD-fed mice, CTPI-2 50 mg/kg i.p. alternate days
[7] = time course of CTPI-2 treatment

How did the “Ac-CoA concentration in the liver” value ([1]; HFD+CTPI-2 vs HFD-vehicle) turn out when O=C(O)c1ccccc1NS(=O)(=O)c1ccc(Cl)c([N+](=O)[O-])c1 [CTPI-2] was run?
Its value is “significantly lower”.

And the “citrate concentration in the liver” value ([1]; HFD+CTPI-2 vs HFD-vehicle)?
Its value is “significantly lower”.

What about the liver diglycerides levels ([1]; LC-MS) of the same compound?
The liver diglycerides levels was “reduced the levels”.

And the “liver linoleic acid levels” value ([1]; LC-MS)?
The value was “reduced the levels”.

And the liver monoglycerides levels ([1]; LC-MS)?
The liver monoglycerides levels was “reduced the levels”.

What about the “liver palmitic acid levels” value ([1]; LC-MS) of the same compound?
Its value is “reduced the levels”.

What about the liver phosphatidylglycerol levels ([1]; LC-MS) of the same compound?
Its liver phosphatidylglycerol levels is “reduced the levels”.

What about the “liver concentration of long chain triglycerides” value ([1]; Lipidyzer platform) of the same compound?
Its value is “significantly diminished”.

And the “total level of free fatty acids in the liver” value ([1]; Lipidyzer platform, particularly chain 16 to 25)?
Its value is “significantly diminished”.

What about the “liver concentration of lactate” value ([1]; targeted LC-MS) of the same compound?
Its value is “decreased”.

And the “liver concentration of pyruvate” value ([1]; targeted LC-MS)?
The value was “decreased”.

What about the “effect of citrate supplementation on CTPI-2 gene inhibition (FASN, ACACA, AldoA, Aldo/B)” value ([2]; 5 mM sodium citrate) of the same compound?
Its value is “completely rescued by citrate”.

What about the “expression of FA synthesis genes FASN and ACACA” value ([2]; CTPI-2 5-12 hours) of the same compound?
Its value is “inhibited”.

What about the “expression of glycolytic/gluconeogenesis genes AldoA and Aldo/B” value ([2]; CTPI-2 5-12 hours) of the same compound?
Its value is “inhibited”.

What about the “prevention of liver steatosis relative to Cre/Alb+:Slc25a1−/− mice” value ([3]; HFD conditions) of the same compound?
The value was “more effectively prevented liver steatosis”.

What about the “alanine aminotransferase (ALT) levels” value [3, 6] of the same compound?
The value was “normalized”.

What about the “total serum cholesterol levels” value [3, 6] of the same compound?
Its value is “normalized”.

What about the serum triglyceride levels ([3]; HFD-fed mice, CTPI-2 50 mg/kg i.p. alternate days, LC-MS) of the same compound?
The serum triglyceride levels was “normalized”.

What about the evolution to steatohepatitis ([3]; HFD-fed mice, CTPI-2 started after 3 months HFD) of the same compound?
Its evolution to steatohepatitis is “prevented the evolution to steatohepatitis”.

What about the liver steatosis ([3]; HFD-fed mice, CTPI-2 started after 3 months HFD, 4, 8, 12 weeks treatment) of the same compound?
Its liver steatosis is “nearly completely reversed liver steatosis”.

And the “liver histology compared with normal-diet animals” value ([3]; after 3 months of CTPI-2 and 6 months on the HFD, most treated mice)?
The value was “nearly indistinguishable from those of animals fed a normal diet”.

And the “early stages of steatosis” value ([3]; steatosis present after 3 months HFD when CTPI-2 started)?
Its value is “reverted these early stages of steatosis”.

And the “basal fasting glucose levels” value ([4]; CTPI-2 50 mg/kg i.p. alternate days)?
The value was “reduced the basal fasting glucose levels”.

And the “glucose tolerance test (GTT)” value [4, 7]?
The value was “complete time-dependent normalization”.

What about the “insulin tolerance test (ITT)” value [4, 7] of the same compound?
The value was “complete time-dependent normalization”.

What about the “SLC25A1 expression levels in the adipose tissue” value [5] of the same compound?
Its value is “reduced SLC25A1 expression levels”.

What about the “SLC25A1 expression levels in the liver” value [5] of the same compound?
The value was “reduced SLC25A1 expression levels”.

And the “SLC25A1 expression levels in the pancreas” value [5]?
The value was “not in the pancreas”.
